Data published in PMC7760514, “Fatty Acid Conjugation Leads to Length-Dependent Antimicrobial Activity of a Synthetic Antibacterial Peptide (Pep19-4LF)” (Antibiotics, 2020).
Converted amounts (≈) assume the structure as drawn. Peptide text beside a SMILES is read from it. * marks the point of attachment. Stearoyl = CCCCCCCCCCCCCCCCCC(=O)*; Palmitoyl = CCCCCCCCCCCCCCCC(=O)*; Myristoyl = CCCCCCCCCCCCCC(=O)*; Lauroyl = CCCCCCCCCCCC(=O)*; Decanoyl = CCCCCCCCCC(=O)*; Octanoyl = CCCCCCCC(=O)*

What was measured:
[1] = system: Acinetobacter bohemicus (DSM 100419); experiment: Minimal bactericidal concentration (MBC); format: cell-based; conditions: Table S2, n=3; unit inferred; lowest concentration killing 99.9% of the inoculum; agar 24 h, 30 ± 1 °C
Method: (§1) Minimal bactericidal concentrations (MBCs) were determined by pipetting 3 µL of each broth dilution solution without visible growth onto a new agar plate. The agar plates were incubated at 37 ± 1 °C (for A. bohemicus: 30 ± 1 °C) for 24 h and were again analyzed with respect to bacterial growth. MBC is defined as the lowest concentration killing 99.9% of the inoculum.

[2] = system: Acinetobacter bohemicus (DSM 100419); experiment: Minimal inhibitory concentration (MIC), broth microdilution; format: cell-based; set-up: key to MIC value: MIC in μg/mL (lowest concentration without visible growth); conditions: 30 ± 1 °C; for MIC value: Table S2, n=3, no unit given (main text uses µg/mL); for MIC: broth microdilution, cation-adjusted MHB II, 5 × 10^5 cfu/mL, read after 18 to 20 h, n = 3
Method: (§2) Minimal inhibitory concentrations (MICs) were determined against Gram-positive Enterococcus faecium vanA (UL 602570*, clinical isolate from Institute for Medical Microbiology and Hygiene, Heidelberg University Hospital, Heidelberg, Germany), Staphylococcus aureus (ATCC 25923), Rothia kristinae (DSM 20032), and Gram-negative Acinetobacter bohemicus (DSM 100419) (all obtained from the Department of Infectious Diseases, Medical Microbiology and Hygiene, Heidelberg University, Heidelberg, Germany) in a 96-well polypropylene plate (650261 Greiner Bio-One GmbH, Frickenhausen, Germany) according to European Committee on Antimicrobial Susceptibility Testing (EUCAST) and The Clinical & Laboratory Standards Institute (CLSI) guidelines. Briefly, the stock solutions of the peptide conjugates in water were adjusted to a concentration of 1.28 mg/mL. Starting with the highest concentration of 64 μg/mL in 96-well polypropylene plates, dilution series in cation-adjusted Mueller–Hinton broth (MHB II; Sigma Aldrich, Steinheim, Germany) were performed, resulting in the lowest concentration of 0.125 μg/mL. A logarithmic growing bacterial culture was adjusted to a McFarland corresponding to 1 × 10^8 cfu/mL using a McFarland counter (DensiCHEK® plus, bioMerieux, Marcy-l’Étoile, France). Finally, a bacterial suspension of 1 × 10^6 cfu/mL (further diluted in MHB II) was added to each peptide-conjugate concentration. Thus, the final bacterial concentration in each well was 5 × 10^5 cfu/mL. The bacteria were incubated at 37 ± 1 °C (for A. bohemicus: 30 ± 1 °C) overnight and the bacterial growth was analyzed after 18 to 20 h. The MIC was defined as the lowest concentration of substance without any visible growth. Vancomycin and colistin sulfate were purchased from Sigma-Aldrich Chemie GmbH, München, Germany and Carl Roth GmbH, Karlsruhe, Germany.

[3] = system: Staphylococcus aureus (ATCC 25923); experiment: as above; format: cell-based; conditions: cation-adjusted MHB II, 5 × 10^5 cfu/mL, 37 ± 1 °C, read after 18 to 20 h, n = 3
Method: as §2

[4] = system: Rothia kristinae (DSM 20032); experiment: as above; format: cell-based; conditions: Table 3 of supplement, n=3; unit inferred; 37 ± 1 °C
Method: as §2

[5] = system: Rothia kristinae (DSM 20032); experiment: Minimal bactericidal concentration (MBC); format: cell-based; conditions: Table 3 of supplement, n=3; unit inferred; lowest concentration killing 99.9% of the inoculum; agar 24 h, 37 ± 1 °C
Method: as §1

[6] = system: Rothia kristinae (DSM 20032); experiment: Time-kill studies; format: cell-based; conditions: for change in number of cfu/mL: 0.5 × MIC, 0 to 8 h
Method: Time–kill studies were performed in accordance with CLSI guidelines. Therefore, Rothia kristinae DSM 20032 was adjusted to a concentration of 1 x 10^8 cfu/mL and further diluted to 1 × 10^6 cfu/mL in cation-adjusted MHB II. According to the previous determined MIC values of Pep19-4LF, C11-Pep19-4LF, and bacitracin (positive control) (Sigma Aldrich Chemie GmbH, München, Germany), samples were taken for 4 × MIC, 2 × MIC, 1 × MIC, and 0.5 × MIC after 30 min, 1 h, 2 h, 4 h, and 8 h. These samples were diluted in sterile saline and 10 µL of each sample was loaded onto agar plates. A bacterial suspension of 1 × 10^6 cfu/mL served as a growth control. Incubation occurred at 37 ± 1 °C and all counted colonies were recalculated to the colony number in the original inoculum.

[7] = format: physicochemical
Description: The high MIC value of Pep19-short indicates the importance of a hydrophobic moiety for this synthetic antimicrobial peptide. […] If the length of the fatty acid is too short, the interaction between the peptide conjugate and components of the bacterial cell membrane might be unfavorable, thus leading to loss of efficiency. Fatty acids of medium chain length enable a stable plateau of low MIC values, indicating a more efficient interaction between the peptide conjugate and bacterial cells. […] A detailed interaction between Pep19 peptides and membrane-bound toxins was previously described by Correa et al.. […] A hypothesized mechanism for this interaction represents the reorganization of the bacterial membrane leading in an inability to maintain the osmotic pressure. Here, the positively-charged amino acids of the peptide conjugate might interact with the negatively-charged compounds of the bacterial cell wall and the hydrophobic part interacts with hydrophobic lipids of the bacterial membrane. Several mechanisms for a membrane disruption by amphiphilic peptides were further described by Sato and Feix. With respect to the parent peptide Pep19-4LF, the hydrophobic moiety was located at the C-terminus. As the synthesis leads to peptides that are linked to the resin via their C-terminus, the fatty acids were linked to the free N-terminus of the peptide. […]

[8] = rat, in vivo, iv
Method: For this purpose, the tyrosine residues of the peptides were radiolabeled with ^125I (Hartmann Analytic GmbH, Braunschweig, Germany) using the chloramine-T method [28]. Free ^125I was separated by preparative HPLC as previously described by Schieck et al. [22]. Approximately 2 to 4 MBq of the radiolabeled peptides was injected intravenously into the tail vein and images were recorded immediately post injection and after 1 h, 2 h, 3 h, 5 h, and 24 h. Scintigraphical images were obtained by using a γ-camera (Gamma Imager, Biospace Lab, Paris, France).

[9] = system: Enterococcus faecium (UL602570*, clinical isolate, vanA-resistant); experiment: Minimal inhibitory concentration (MIC), broth microdilution; format: cell-based; conditions: cation-adjusted MHB II, 5 × 10^5 cfu/mL, 37 ± 1 °C, read after 18 to 20 h, n = 3
Method: as §2

[10] = 4 × MIC, 1 × 10^6 cfu/mL in MHB II, 37 °C, n = 3

| Compound | MBC value [1] [µg/mL] | MIC value [2] | MIC [3] | MIC [2] | further results |
| --- | --- | --- | --- | --- | --- |
| CCCCCCCC(=O)NCC(=O)N[C@@H](CCCCN)C(=O)N[C@@H](CCCCN)C(=O)N[C@@H](Cc1ccc(O)cc1)C(=O)N[C@@H](CCCNC(=N)N)C(=O)N[C@@H](CCCNC(=N)N)C(=O)N[C@@H](Cc1ccccc1)C(=O)N[C@@H](CCCNC(=N)N)C(=O)N[C@@H](Cc1c[nH]c2ccccc12)C(=O)N[C@@H](CCCCN)C(=O)N[C@@H](Cc1ccccc1)C(=O)N[C@@H](CCCCN)C(=O)NCC(=O)N[C@@H](CCCCN)C(N)=O [C8-Pep19-short] (Octanoyl-GKKYRRFRWKFKGK-NH2) | 8 (≈ 3.98 µM) | 8 |  |  |  |
| CCCCCCCCCC(=O)NCC(=O)N[C@@H](CCCCN)C(=O)N[C@@H](CCCCN)C(=O)N[C@@H](Cc1ccc(O)cc1)C(=O)N[C@@H](CCCNC(=N)N)C(=O)N[C@@H](CCCNC(=N)N)C(=O)N[C@@H](Cc1ccccc1)C(=O)N[C@@H](CCCNC(=N)N)C(=O)N[C@@H](Cc1c[nH]c2ccccc12)C(=O)N[C@@H](CCCCN)C(=O)N[C@@H](Cc1ccccc1)C(=O)N[C@@H](CCCCN)C(=O)NCC(=O)N[C@@H](CCCCN)C(N)=O [C10-Pep19-short] (Decanoyl-GKKYRRFRWKFKGK-NH2) | 4 (≈ 1.96 µM) | 4 |  |  |  |
| CCCCCCCCCCCC(=O)NCC(=O)N[C@@H](CCCCN)C(=O)N[C@@H](CCCCN)C(=O)N[C@@H](Cc1ccc(O)cc1)C(=O)N[C@@H](CCCNC(=N)N)C(=O)N[C@@H](CCCNC(=N)N)C(=O)N[C@@H](Cc1ccccc1)C(=O)N[C@@H](CCCNC(=N)N)C(=O)N[C@@H](Cc1c[nH]c2ccccc12)C(=O)N[C@@H](CCCCN)C(=O)N[C@@H](Cc1ccccc1)C(=O)N[C@@H](CCCCN)C(=O)NCC(=O)N[C@@H](CCCCN)C(N)=O [C12-Pep19-short] (Lauroyl-GKKYRRFRWKFKGK-NH2) | 4 (≈ 1.94 µM) | 4 |  |  |  |
| CCCCCCCCCCCCCC(=O)NCC(=O)N[C@@H](CCCCN)C(=O)N[C@@H](CCCCN)C(=O)N[C@@H](Cc1ccc(O)cc1)C(=O)N[C@@H](CCCNC(=N)N)C(=O)N[C@@H](CCCNC(=N)N)C(=O)N[C@@H](Cc1ccccc1)C(=O)N[C@@H](CCCNC(=N)N)C(=O)N[C@@H](Cc1c[nH]c2ccccc12)C(=O)N[C@@H](CCCCN)C(=O)N[C@@H](Cc1ccccc1)C(=O)N[C@@H](CCCCN)C(=O)NCC(=O)N[C@@H](CCCCN)C(N)=O [C14-Pep19-short] (Myristoyl-GKKYRRFRWKFKGK-NH2) | 8 (≈ 3.82 µM) | 8 |  |  |  |
| CCCCCCCCCCCCCCCC(=O)NCC(=O)N[C@@H](CCCCN)C(=O)N[C@@H](CCCCN)C(=O)N[C@@H](Cc1ccc(O)cc1)C(=O)N[C@@H](CCCNC(=N)N)C(=O)N[C@@H](CCCNC(=N)N)C(=O)N[C@@H](Cc1ccccc1)C(=O)N[C@@H](CCCNC(=N)N)C(=O)N[C@@H](Cc1c[nH]c2ccccc12)C(=O)N[C@@H](CCCCN)C(=O)N[C@@H](Cc1ccccc1)C(=O)N[C@@H](CCCCN)C(=O)NCC(=O)N[C@@H](CCCCN)C(N)=O [C16-Pep19-short] (Palmitoyl-GKKYRRFRWKFKGK-NH2) | > 64 | > 64 | higher MIC values | higher MIC values |  |
| CCCCCCCCCCCCCCCCCC(=O)NCC(=O)N[C@@H](CCCCN)C(=O)N[C@@H](CCCCN)C(=O)N[C@@H](Cc1ccc(O)cc1)C(=O)N[C@@H](CCCNC(=N)N)C(=O)N[C@@H](CCCNC(=N)N)C(=O)N[C@@H](Cc1ccccc1)C(=O)N[C@@H](CCCNC(=N)N)C(=O)N[C@@H](Cc1c[nH]c2ccccc12)C(=O)N[C@@H](CCCCN)C(=O)N[C@@H](Cc1ccccc1)C(=O)N[C@@H](CCCCN)C(=O)NCC(=O)N[C@@H](CCCCN)C(N)=O [C18-Pep19-short] (Stearoyl-GKKYRRFRWKFKGK-NH2) | > 64 | > 64 | higher MIC values | higher MIC values | MIC value [4]: > 64 µg/mL; MBC value [5]: > 64 µg/mL |
| N=C(N)NCCC[C@H](NC(=O)[C@H](Cc1ccc(O)cc1)NC(=O)[C@H](CCCCN)NC(=O)[C@H](CCCCN)NC(=O)[C@H](CS)NC(=O)CN)C(=O)N[C@@H](CCCNC(=N)N)C(=O)N[C@@H](Cc1ccccc1)C(=O)N[C@@H](CCCNC(=N)N)C(=O)N[C@@H](Cc1c[nH]c2ccccc12)C(=O)N[C@@H](CCCCN)C(=O)N[C@@H](Cc1ccccc1)C(=O)N[C@@H](CCCCN)C(=O)NCC(=O)N[C@@H](CCCCN)C(=O)N[C@@H](Cc1ccccc1)C(=O)N[C@@H](Cc1c[nH]c2ccccc12)C(=O)N[C@@H](Cc1ccccc1)C(=O)N[C@@H](Cc1c[nH]c2ccccc12)C(=O)NCC(N)=O [Pep19-2.5, reference compound] | > 64 | > 64 |  |  |  |
| C11-GKKYRRFRWKFKGK [C11-Pep19-short] | 4 | 4 |  |  | MIC value [4]: 4 µg/mL; MBC value [5]: 4 µg/mL; change in number of cfu/mL ([6]; n = 3): only a small decrease in the number of cfu/mL; time until all bacteria killed ([6]; 1 × MIC, n=3): 4 h; time until all bacteria killed ([6]; 2 × MIC, n=3): 0.5 h; time until all bacteria killed / no detectable cfu [6, 10]: ≤ 30 min; mode of action ([6]; 4 × MIC, n = 3): fast and bactericidal mode of action; solubility in water [7]: high solubility in water; speed of elimination compared among the peptides [8]: faster excretion from the body |
| GKKYRRFRWKFKGK-NH2 [Pep19-short] | 64 | 64 | > 64 µg/mL | 64 µg/mL | MIC [9]: > 64 µg/mL; speed of elimination compared among the peptides [8]: no difference in the elimination time |
| bacitracin |  |  |  |  | change in number of cfu/mL ([6]; n = 3): only a small decrease in the number of cfu/mL; mode of action ([6]; 2 × MIC, n=3): bacteriostatic mode of action; time until no detectable cfu [6, 10]: 8 h; mode of action ([6]; 4 × MIC, n = 3): bactericidal activity |
